Earlier results in publication PMC6114101 (International Journal for Parasitology: Drugs and Drug …, 2018).

Columns and labels:
[1] = ref Ojo et al., 2013
N. caninum = conditions: ref Ojo et al., 2014; Winzer et al., 2015; Müller et al., 2017a
[2] = system: human ether-a-go-go-related gene (hERG) ion channel; conditions: ref Vidadala et al., 2016

excreted in urine [1]	SMILES	activity against N. caninum in vitro (N. caninum)	hERG inhibition [2]
1%	CCOc1ccc2cc(-c3nn(CC4CCN(C)CC4)c4ncnc(N)c34)ccc2c1 [BKI-1294]	effective	potent
	CCOc1ccc2cc(-c3nn(C(C)(C)C)c(N)c3C(N)=O)cnc2c1 [BKI-1517]	effective	
